The IC50 is the concentration that inhibits the measured activity by half. A lower IC50 goes with greater potency in that assay.

Series [1] can be described thus: Solubility determination in oil (cottonseed oil, sesame oil). The settings on record: Sesame oil; for Solubility by volumetric flask method: Sesame oil: heating 60 °C, obs. 25 °C. How it is done:
A known amount of test substance (˜40 mg) was weighed into the vial, 100 μL of oil was added and heated to 60° C. and then system was slurried to reach equilibrium. […] Extra oil was added into the vial once compound precipitated out and then the system was re-equilibrated at 1000 rpm at room temperature (25° C.). Final concentration was determined by HPLC method as described below in Table 6a and 6b.

The target of a further series is T1, DOR (Homo sapiens, UniProt P41143).
T1 construct: expressed in transfected cells; membranes prepared from them
The series is described as follows: Opioid receptor binding assay, DOR ([3H]-DADLE). The conditions noted are these: for %Inh@MaxDose: DOR.

The nature of series [2]: Dog pharmacokinetic studies, deep intramuscular. The series is classed as in vivo, Beagle dogs. The conditions noted are these: dog IM, 48 mg/kg, Sesame oil + 1% Benzyl Alcohol. How it is done: The purpose of this study is to determine the pharmacokinetics of test compounds in plasma, following deep intramuscular administration to Beagle dogs (n=3, unless otherwise specified).
(§1) The dose formulation (concentration−400 mg base equivalents/ml in sesame oil+1% benzyl alcohol, unless otherwise specified) was administered via deep intramuscularly (unless otherwise specified). The injection vehicle was also dosed via deep intramuscular route (unless otherwise specified) on contralateral site of each animal at study initiation. The animals were sedated with Propofol at 6 mg/kg via IV administration. Following sedation hair was carefully removed from around the injection site and the area gently cleaned. Care will be taken to avoid irritating skin during shaving and cleaning the injection site. Then dogs will be dosed with deep IM administration. At least 2.5 cm depth from the surface into the central aspect of the quadriceps or biceps femoris muscle, by angling the needle toward the femur. If the needle hits the femur, simply draws back slightly and then inject. The dose volume will be determined by the animals' body weight collected on the morning of dosing day. For repeated administration, the injection sites may be rotated to minimize tissue injury.
Blood samples were collected from a peripheral vessel from restrained, non-sedated animals per sampling time point.
Approximately 0.8 mL blood will be collected at each time point.
Each collected blood sample was centrifuged for 4 minutes at 4° C. and 10000 rpm for plasma collection. Plasma was collected and transferred into a pre-labeled PP tube in dry ice at each time point and precipitated immediately using ACN at a ratio of 1:4 (plasma:ACN). Centrifuged again (10 minutes, 12000 rpm) and obtain the supernatant.
After terminal collection, all supernatant was stored at approximately −80° C. F until bioanalysis.
LC-MS/MS methods for the quantitative determination of test compound in biological matrix were developed. […] The sample analysis was performed concurrently with a set of calibration standards and two sets of QC samples using the LC-MS/MS method.
Plasma concentration versus time data was analyzed by non-compartmental approaches using the Phoenix WinNonlin 6.3 software program. Cmax, Tmax, T1/2, AUC(0-t), AUC(0-inf), MRT(0-t), MRT(0-inf) and graphs of plasma concentration versus time profile were prepared.

Series [3] can be described thus: Dog clinical observations after intramuscular dosing. The series is classed as in vivo, Beagle dogs. The protocol:
Weight monitoring was done every week.
as §1

For another series, the target named is T2, KOR (Homo sapiens, UniProt P41145).
T2 construct: expressed in transfected cells; membranes prepared from them
Put plainly: Opioid receptor binding assay, KOR ([3H]Diprenorphine). The conditions noted are these: KOR.

For another series, the target named is T3, MOR (Homo sapiens, UniProt P35372).
T3 construct: expressed in transfected cells; membranes prepared from them
Put plainly: Opioid receptor binding assay, MOR ([3H]DAMGO). The conditions noted are these: MOR.

T1 sequence (P41143 whole entry): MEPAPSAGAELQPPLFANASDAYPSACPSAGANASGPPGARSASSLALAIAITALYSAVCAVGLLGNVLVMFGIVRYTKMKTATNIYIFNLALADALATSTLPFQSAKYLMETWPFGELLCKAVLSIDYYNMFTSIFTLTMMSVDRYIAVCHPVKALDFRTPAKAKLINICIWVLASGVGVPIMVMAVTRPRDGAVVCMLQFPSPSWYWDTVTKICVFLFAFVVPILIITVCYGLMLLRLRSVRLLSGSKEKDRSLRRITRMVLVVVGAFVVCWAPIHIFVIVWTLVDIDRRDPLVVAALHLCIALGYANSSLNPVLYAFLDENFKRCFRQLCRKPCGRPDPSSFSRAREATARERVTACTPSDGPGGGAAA
T3 sequence (P35372 whole entry): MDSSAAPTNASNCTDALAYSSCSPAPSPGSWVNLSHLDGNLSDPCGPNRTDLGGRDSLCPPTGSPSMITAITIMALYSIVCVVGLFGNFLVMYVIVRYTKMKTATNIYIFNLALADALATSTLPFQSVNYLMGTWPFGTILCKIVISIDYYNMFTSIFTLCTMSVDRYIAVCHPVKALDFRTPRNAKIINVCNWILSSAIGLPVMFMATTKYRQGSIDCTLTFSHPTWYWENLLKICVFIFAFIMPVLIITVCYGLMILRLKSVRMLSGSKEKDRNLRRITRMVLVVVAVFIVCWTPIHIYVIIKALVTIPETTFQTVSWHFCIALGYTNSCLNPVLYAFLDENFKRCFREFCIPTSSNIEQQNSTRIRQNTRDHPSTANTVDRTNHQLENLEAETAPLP
T2 sequence (P41145 whole entry): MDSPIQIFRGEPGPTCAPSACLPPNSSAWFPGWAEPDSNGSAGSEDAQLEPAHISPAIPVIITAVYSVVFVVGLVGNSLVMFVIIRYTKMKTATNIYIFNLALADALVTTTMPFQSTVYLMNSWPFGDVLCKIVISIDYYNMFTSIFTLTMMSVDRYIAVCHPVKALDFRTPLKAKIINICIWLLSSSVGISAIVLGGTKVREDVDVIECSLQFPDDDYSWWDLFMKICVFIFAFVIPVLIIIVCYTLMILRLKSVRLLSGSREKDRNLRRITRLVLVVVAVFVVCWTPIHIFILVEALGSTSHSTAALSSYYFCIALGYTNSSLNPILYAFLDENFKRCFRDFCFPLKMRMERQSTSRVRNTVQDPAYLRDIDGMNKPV

For the molecule `CCCCCCCCCCCOC(=O)OCOc1ccc2c3c1O[C@H]1C(=O)CC[C@@]4(O)C(C2)N(CC2CC2)CC[C@]314` [Compound 4, (((4aS,7aR,12bS)-3-(cyclopropylmethyl)-4a-hydroxy-7-oxo-2,3,4,4a,5,6,7,7a-octahydro-1H-4,12-methanobenzofuro[3,2-e]isoquinolin-9-yl)oxy)methyl undecyl carbonate], the “Solubility by volumetric flask method: Sesame oil” value in series [1] is listed as more than 400.4 mg/mL. Moreover, the IC50 on DOR is more than 10 µM. For the same molecule, on DOR (MaxDose 10000 nM), the “%Inh@MaxDose” value stood at 43.2%. The “AUC0-inf (ng · h/mL) prodrug” value in series [2] was found to be 829 ng·h/mL.
Take `C=C1CC[C@@]2(O)C3Cc4ccc(OCOC(=O)OCCCCCCCCCCC)c5c4[C@@]2(CCN3CC2CC2)[C@H]1O5` [Compound 5, (((4aS,7aS,12bS)-3-(cyclopropylmethyl)-4a-hydroxy-7-methylene-2,3,4,4a,5,6,7,7a-octahydro-1H-4,12-methanobenzofuro[3,2-e]isoquinolin-9-yl)oxy)methyl undecyl carbonate]: the “Solubility by volumetric flask method: Sesame oil” value in series [1] was more than 400.6 mg/mL. The “BT (clinical observations, R-TA)” value in series [3] (dog D1001, 48 mg/kg, 264 hr) was “BT:38.6 °C”; in series [3] (dog D1001, 48 mg/kg, 288 hr), “BT:38.6 °C”; in series [3] (dog D1001, 48 mg/kg, 312 hr), “BT:38.0 °C”; in series [3] (dog D1001, 48 mg/kg, 336 hr), “BT:38.4 °C”; in series [3] (dog D1001, 48 mg/kg, 360 hr), “BT:38.1 °C”; in series [3] (dog D1001, 48 mg/kg, 432 hr) it was “BT:38.0 °C”. Moreover, the “BT (clinical observations, R-TA)” value is “BT:38.0 °C” in series [3] (dog D1001, 48 mg/kg, 480 hr); “BT38.2 °C” in series [3] (dog D1001, 48 mg/kg, 528 hr); “BT:38.4 °C” in series [3] (dog D1001, 48 mg/kg, 552 hr); “BT:38.4 °C” in series [3] (dog D1001, 48 mg/kg, 576 hr); “BT:38.3 °C” in series [3] (dog D1001, 48 mg/kg, 600 hr); “BT:38.6 °C” in series [3] (dog D1001, 48 mg/kg, 624 hr). Further, the “BT (clinical observations, R-TA)” value in series [3] (dog D1001, 48 mg/kg, 648 hr) was “BT:38.3 °C”; in series [3] (dog D1001, 48 mg/kg, 672 hr) it was “BT:38.3 °C”; in series [3] (dog D1001, 48 mg/kg, […]), “BT:38.7 °C”; in series [3] (dog D1002, 48 mg/kg, 264 hr), “BT:39.5 °C”; in series [3] (dog D1002, 48 mg/kg, 288 hr), “BT:39.5 °C”; in series [3] (dog D1002, 48 mg/kg, 312 hr), “BT:38.5 °C”. The “BT (clinical observations, R-TA)” value in series [3] (dog D1002, 48 mg/kg, 336 hr) was “BT:38.7 °C”; in series [3] (dog D1002, 48 mg/kg, 360 hr), “BT:39.1 °C”; in series [3] (dog D1002, 48 mg/kg, 432 hr), “BT:38.9 °C”; in series [3] (dog D1002, 48 mg/kg, 456 hr), “BT:38.9 °C”; in series [3] (dog D1002, 48 mg/kg, 480 hr), “BT:39.2 °C”; in series [3] (dog D1002, 48 mg/kg, 504 hr), “BT:38.7 °C”. The “BT (clinical observations, R-TA)” value was “BT:37.9 °C” in series [3] (dog D1002, 48 mg/kg, 528 hr); “BT:39.2 °C” in series [3] (dog D1002, 48 mg/kg, 552 hr); “BT:39.0 °C” in series [3] (dog D1002, 48 mg/kg, 576 hr); “BT:38.6 °C” in series [3] (dog D1002, 48 mg/kg, 600 hr); “BT:38.9 °C” in series [3] (dog D1002, 48 mg/kg, 624 hr); “BT:38.5 °C” in series [3] (dog D1002, 48 mg/kg, 648 hr). For the same molecule, the “BT (clinical observations, R-TA)” value in series [3] (dog D1002, 48 mg/kg, 672 hr) is “BT:39.3 °C”. For the same molecule, in series [2], the “AUC0-inf (ng · h/mL) prodrug” value was 3869 ng·h/mL. Besides, the “Half-life t1/2 (hour) prodrug” value in series [2] amounted to 70.9 h.
Turning to `C=C1CC[C@@]2(O)C3Cc4ccc(OC(=O)OCCCCCCCCCCCCCCC)c5c4[C@@]2(CCN3CC2CC2)[C@H]1O5` [Compound 32, (4aS,7aS,12bS)-3-(cyclopropylmethyl)-4a-hydroxy-7-methylene-2,3,4,4a,5,6,7,7a-octahydro-1H-4,12-methanobenzofuro[3,2-e]isoquinolin-9-yl pentadecyl carbonate], the “%Inh@MaxDose” value at KOR (MaxDose 10000 nM) is listed as 80.1%; on MOR (MaxDose 10000 nM), 75.9%. Further, the “Approximate Solubility (mg/mL) in Excipient: Sesame oil” value in series [1] (heating temp. 60 °C, obs. temp. 25 °C) is more than 410 mg/mL.
On to `C=C1CC[C@@]2(O)C3Cc4ccc(OCOC(=O)OCCCCCCCCCCCCCCCC)c5c4[C@@]2(CCN3CC2CC2)[C@H]1O5` [Compound 34, (((4aS,7aS,12bS)-3-(cyclopropylmethyl)-4a-hydroxy-7-methylene-2,3,4,4a,5,6,7,7a-octahydro-1H-4,12-methanobenzofuro[3,2-e]isoquinolin-9-yl)oxy)methyl hexadecyl carbonate], for which the “%Inh@MaxDose” value on DOR (MaxDose 10000 nM) is on record as 22.7%.
Turning to `C=C1CC[C@@]2(O)C3Cc4ccc(OCOC(=O)CCCCCCCCCCC)c5c4[C@@]2(CCN3CC2CC2)[C@H]1O5` [Compound 44, (((4aS,7aS,12bS)-3-(cyclopropylmethyl)-4a-hydroxy-7-methylene-2,3,4,4a,5,6,7,7a-octahydro-1H-4,12-methanobenzofuro[3,2-e]isoquinolin-9-yl)oxy)methyl dodecanoate], the “%Inh@MaxDose” value is given as 99.2% at KOR (MaxDose 10000 nM), 83.1% on MOR (MaxDose 10000 nM) and 79.1% on DOR (MaxDose 10000 nM).
The matching figures for `C=C1CC[C@@]2(O)C3Cc4ccc(OCOC(=O)CCCCCCCCCCCCCCC)c5c4[C@@]2(CCN3CC2CC2)[C@H]1O5` [Compound 46, (((4aS,7aS,12bS)-3-(cyclopropylmethyl)-4a-hydroxy-7-methylene-2,3,4,4a,5,6,7,7a-octahydro-1H-4,12-methanobenzofuro[3,2-e]isoquinolin-9-yl)oxy)methyl hexadecanoate]: 101.8%, 102.3% and 72.3%.
Turning to `Oc1ccc2c3c1O[C@H]1c4[nH]c5ccccc5c4C[C@@]4(O)[C@@H](C2)N(CC2CC2)CC[C@]314` [Naltrindole, reference compound], at DOR (MaxDose 100 nM), the “%Inh@MaxDose” value is 98.8%.
Take `C=C1CC[C@@]2(O)[C@H]3Cc4ccc(O)c5c4[C@@]2(CCN3CC2CC2)[C@H]1O5` [nalmefene, 17-cyclopropylmethyl-4,5α-epoxy-6-methylenemorphinan-3,14-diol, reference compound]: the entries for the “%Inh@MaxDose” value on KOR (MaxDose 1000 nM), on MOR (MaxDose 1000 nM) and on DOR (MaxDose 1000 nM) were 103%, 103.5% and 94.5%, respectively.

These data come from patent publication US10525055B2, “Opioid receptor antagonist prodrugs” (Nirsum Laboratories, Inc., priority 2017, dated 2020).
